According to patent publication US4091114A, “Pharmaceutically active 2-omega-aminoalkoxydiphenylmethanes” (Mitsubishi Chemical Industries Limited, priority 1976, dated 1978):
Structures can show the parent of a compound that is named as a salt.

Columns and labels:
[1] = test system: reserpine induced hypothermia; assay: Antireserpine activity in mice (antagonism of reserpine induced hypothermia); type: in vivo
in vivo = conditions: mouse, ip
mice = conditions: mouse, in vivo, ip
[2] = mice, i.p., reserpine 5 mg/kg i.p., Amitriptyline = 1

CN(C)CCCOc1ccccc1Cc1ccccc1 [2-(3-dimethylaminopropoxy)diphenylmethane hydrochloride]
antidepressant activity (in words) ([1]; mouse, in vivo): no such activity

CN(C)CCCCOc1ccccc1Cc1ccccc1.Cl [2-(4-dimethylaminobutoxy) diphenyl methane hydrochloride]
Antireserpine activity, Relative Potency ([1]; mouse, in vivo): 0

CCNCCCCOc1ccccc1Cc1ccccc1 [2-(4-ethylaminobutoxy)diphenylmethane hydrochloride]
Antireserpine activity, Relative Potency ([1]; mouse, in vivo): 0.53
LD50 (in vivo): 120 mg/kg

CN(C)CCCCCOc1ccccc1Cc1ccccc1 [2-(5-dimethylaminopentyloxy)diphenylmethane hydrochloride]
Antireserpine activity, Relative Potency [1, 2]: 0.23
antidepressant activity (in words) ([1]; mouse, in vivo): inferior antidepressant activity

CNCCCCCOc1ccccc1Cc1ccccc1 [2-(5-methylaminopentyloxy)diphenylmethane hydrochloride]
Antireserpine activity, Relative Potency ([1]; mouse, in vivo): 0.54
LD50 (in vivo): 160 mg/kg

c1ccc(Cc2ccccc2OCCCCN2CCCCC2)cc1 [2-[4-(1-piperidyl)butoxy]diphenylmethane hydrochloride]
Antireserpine activity, Relative Potency [1, 2]: 0.41

CN(C)CCC=C1c2ccccc2CCc2ccccc21 [Amitriptyline]
LD50 (mice): 65 mg/kg
